“Also recorded” adds a separate entry of the source. Like-named read-outs stand apart in the source and are kept apart here.
How the values were obtained:
OATP1B3 = molecular target: T1, OATP1B3 (Homo sapiens, UniProt Q9NPD5); experiment: OATP1B3-dependent pyranine uptake in overexpressing A431 cells; format: cell-based; settings: for OATP1B3 Type of effect: A431 cells
T1 construct: expressed in transfected cells; host or cells: A431 cells (ATCC)
T1 sequence (Q9NPD5 1-702): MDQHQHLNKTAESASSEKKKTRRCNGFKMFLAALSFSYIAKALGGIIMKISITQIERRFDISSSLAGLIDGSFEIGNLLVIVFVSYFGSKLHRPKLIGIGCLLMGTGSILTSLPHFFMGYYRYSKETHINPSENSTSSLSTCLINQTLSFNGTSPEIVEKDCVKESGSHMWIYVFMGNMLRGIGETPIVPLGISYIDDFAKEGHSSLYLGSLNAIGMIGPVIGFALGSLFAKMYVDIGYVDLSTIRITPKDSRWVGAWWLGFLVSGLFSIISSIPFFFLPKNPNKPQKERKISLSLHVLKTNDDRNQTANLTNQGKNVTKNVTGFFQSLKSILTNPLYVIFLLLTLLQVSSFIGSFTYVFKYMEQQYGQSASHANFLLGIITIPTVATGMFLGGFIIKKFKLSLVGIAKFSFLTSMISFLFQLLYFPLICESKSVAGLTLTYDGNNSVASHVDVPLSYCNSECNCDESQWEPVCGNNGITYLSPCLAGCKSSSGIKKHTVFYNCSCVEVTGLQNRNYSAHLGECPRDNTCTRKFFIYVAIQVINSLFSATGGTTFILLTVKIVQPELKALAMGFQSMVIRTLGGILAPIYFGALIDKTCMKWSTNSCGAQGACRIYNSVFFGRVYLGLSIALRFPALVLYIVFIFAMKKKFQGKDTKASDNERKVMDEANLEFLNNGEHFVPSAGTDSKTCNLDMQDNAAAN

NTCP/SLC10A1 = molecular target: T2, NTCP/SLC10A1 (Homo sapiens, UniProt Q14973); experiment: NTCP-dependent taurocholate uptake in NTCP-overexpressing HEK-293 cells; format: cell-based; settings: for NTCP/SLC10A1 Type of effect: taurocholate 2 µM, 2 min, 37 °C, HEK-293 cells
T2 construct: expressed in transfected cells; host or cells: HEK-293 cells, lentiviral transduction
T2 sequence (Q14973 1-349): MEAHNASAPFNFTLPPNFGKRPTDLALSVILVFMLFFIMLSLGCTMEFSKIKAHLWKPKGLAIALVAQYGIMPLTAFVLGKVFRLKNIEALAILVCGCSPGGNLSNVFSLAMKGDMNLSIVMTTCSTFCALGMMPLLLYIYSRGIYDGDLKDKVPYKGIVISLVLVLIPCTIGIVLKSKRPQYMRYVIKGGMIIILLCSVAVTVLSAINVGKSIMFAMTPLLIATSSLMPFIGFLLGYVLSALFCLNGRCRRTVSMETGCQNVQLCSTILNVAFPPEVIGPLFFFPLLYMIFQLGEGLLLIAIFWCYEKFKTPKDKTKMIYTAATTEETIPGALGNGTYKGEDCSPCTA

ABCC4/MRP4 = molecular target: T3, ABCC4/MRP4 (Homo sapiens, UniProt O15439); experiment: MRP4 vesicular transport: ATP-dependent DHEAS uptake into inverted HEK-293 membrane vesicles; format: biochemical; settings: for inhibition at […]: up to 50 µM drug, read-out: maximum inhibition of MRP4-dependent substrate transport; for ABCC4/MRP4 Type of effect: DHEAS 0.5 µM, 32 °C, HEK-293 vesicles
T3 construct: purchased Solvo Biotechnology (Budapest, Hungary); host or cells: HEK-293 cells
T3 sequence (O15439 1-1325): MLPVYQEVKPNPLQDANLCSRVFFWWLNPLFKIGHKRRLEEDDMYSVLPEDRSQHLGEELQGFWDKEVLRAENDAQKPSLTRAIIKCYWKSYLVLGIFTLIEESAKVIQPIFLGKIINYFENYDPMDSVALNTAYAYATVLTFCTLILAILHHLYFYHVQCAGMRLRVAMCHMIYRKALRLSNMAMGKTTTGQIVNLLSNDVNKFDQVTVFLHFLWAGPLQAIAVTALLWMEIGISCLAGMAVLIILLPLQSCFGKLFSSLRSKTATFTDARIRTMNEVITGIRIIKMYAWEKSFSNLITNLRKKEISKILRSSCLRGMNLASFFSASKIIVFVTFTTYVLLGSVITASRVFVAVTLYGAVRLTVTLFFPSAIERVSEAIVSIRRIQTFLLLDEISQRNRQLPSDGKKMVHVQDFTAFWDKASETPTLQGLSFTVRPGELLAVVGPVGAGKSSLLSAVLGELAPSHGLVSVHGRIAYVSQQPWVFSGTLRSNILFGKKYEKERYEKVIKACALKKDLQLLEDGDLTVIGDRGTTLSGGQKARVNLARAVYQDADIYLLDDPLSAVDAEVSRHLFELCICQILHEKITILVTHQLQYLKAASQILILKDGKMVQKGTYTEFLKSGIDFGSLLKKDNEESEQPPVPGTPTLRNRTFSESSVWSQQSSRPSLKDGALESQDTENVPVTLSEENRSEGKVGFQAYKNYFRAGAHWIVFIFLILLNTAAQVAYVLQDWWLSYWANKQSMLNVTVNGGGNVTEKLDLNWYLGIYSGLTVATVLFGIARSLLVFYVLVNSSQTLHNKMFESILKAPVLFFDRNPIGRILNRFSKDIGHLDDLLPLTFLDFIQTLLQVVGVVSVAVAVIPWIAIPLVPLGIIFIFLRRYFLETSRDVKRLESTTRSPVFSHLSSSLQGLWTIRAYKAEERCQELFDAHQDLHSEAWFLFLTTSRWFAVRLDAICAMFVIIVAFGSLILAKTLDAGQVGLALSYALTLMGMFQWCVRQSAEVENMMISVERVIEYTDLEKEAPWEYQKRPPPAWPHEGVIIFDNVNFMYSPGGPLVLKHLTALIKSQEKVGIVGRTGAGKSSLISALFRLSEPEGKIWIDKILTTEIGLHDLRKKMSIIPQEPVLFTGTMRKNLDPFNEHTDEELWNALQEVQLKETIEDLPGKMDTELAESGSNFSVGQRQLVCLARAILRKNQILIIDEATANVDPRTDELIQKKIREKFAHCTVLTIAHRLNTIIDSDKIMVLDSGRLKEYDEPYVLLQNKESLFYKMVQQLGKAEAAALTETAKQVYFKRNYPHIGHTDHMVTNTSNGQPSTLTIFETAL

ABCC2/MRP2 = molecular target: T4, ABCC2/MRP2 (Homo sapiens, UniProt Q92887); experiment: MRP2 vesicular transport: ATP-dependent CDCF uptake into inverted Sf9 membrane vesicles; format: biochemical; settings: CDCF 5 µM, 37 °C, 10 min; for ABCC2/MRP2 Type of effect: Sf9 vesicles
T4 construct: made in house; host or cells: Sf9 insect cells (baculovirus)
T4 sequence (Q92887 whole entry): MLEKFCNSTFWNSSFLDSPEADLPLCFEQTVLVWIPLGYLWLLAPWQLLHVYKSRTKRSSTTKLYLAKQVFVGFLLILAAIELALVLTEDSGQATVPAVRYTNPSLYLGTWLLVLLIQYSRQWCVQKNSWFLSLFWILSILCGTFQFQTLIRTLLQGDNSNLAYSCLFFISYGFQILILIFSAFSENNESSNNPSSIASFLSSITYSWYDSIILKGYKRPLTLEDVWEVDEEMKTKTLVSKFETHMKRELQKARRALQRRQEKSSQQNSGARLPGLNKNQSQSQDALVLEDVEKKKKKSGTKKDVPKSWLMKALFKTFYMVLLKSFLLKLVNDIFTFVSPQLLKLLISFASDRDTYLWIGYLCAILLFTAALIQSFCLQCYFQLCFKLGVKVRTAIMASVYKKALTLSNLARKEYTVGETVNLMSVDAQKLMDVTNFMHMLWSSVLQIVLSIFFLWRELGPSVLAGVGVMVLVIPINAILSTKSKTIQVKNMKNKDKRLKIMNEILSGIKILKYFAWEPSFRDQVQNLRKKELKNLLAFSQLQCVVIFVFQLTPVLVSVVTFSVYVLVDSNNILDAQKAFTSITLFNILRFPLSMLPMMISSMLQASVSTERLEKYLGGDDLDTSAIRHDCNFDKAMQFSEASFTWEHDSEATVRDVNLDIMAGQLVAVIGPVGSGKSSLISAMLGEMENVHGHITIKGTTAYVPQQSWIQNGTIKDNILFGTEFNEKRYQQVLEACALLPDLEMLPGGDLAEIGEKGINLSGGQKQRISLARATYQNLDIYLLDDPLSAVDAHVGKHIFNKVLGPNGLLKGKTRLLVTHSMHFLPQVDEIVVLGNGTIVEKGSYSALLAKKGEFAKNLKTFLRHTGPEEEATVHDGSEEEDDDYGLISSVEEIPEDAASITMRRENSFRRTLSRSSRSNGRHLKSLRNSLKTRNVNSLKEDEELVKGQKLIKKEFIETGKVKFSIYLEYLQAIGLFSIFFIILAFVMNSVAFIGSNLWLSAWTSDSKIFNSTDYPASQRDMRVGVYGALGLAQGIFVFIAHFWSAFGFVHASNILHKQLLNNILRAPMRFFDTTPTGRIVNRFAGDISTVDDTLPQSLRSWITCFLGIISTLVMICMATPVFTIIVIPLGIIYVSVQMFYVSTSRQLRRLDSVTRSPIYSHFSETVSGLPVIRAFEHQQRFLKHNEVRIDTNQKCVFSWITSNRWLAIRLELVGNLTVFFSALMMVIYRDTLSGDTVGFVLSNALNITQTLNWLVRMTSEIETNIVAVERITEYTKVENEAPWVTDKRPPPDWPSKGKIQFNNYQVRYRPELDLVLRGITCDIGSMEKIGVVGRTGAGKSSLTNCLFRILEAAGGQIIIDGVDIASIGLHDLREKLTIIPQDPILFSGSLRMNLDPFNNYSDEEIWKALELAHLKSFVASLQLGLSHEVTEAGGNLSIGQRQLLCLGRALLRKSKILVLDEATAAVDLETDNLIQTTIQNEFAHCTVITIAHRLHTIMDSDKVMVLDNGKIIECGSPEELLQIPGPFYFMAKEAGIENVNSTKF

ABCB11/BSEP = molecular target: T5, ABCB11/BSEP (Homo sapiens, UniProt O95342); experiment: BSEP vesicular transport: ATP- and glyburide-sensitive taurocholate uptake into inverted HEK-293 membrane vesicles; format: biochemical; settings: for ABCB11/BSEP Type of effect: HEK-293 vesicles; for concentration at which BSEP inhibition is effective: taurocholate transport
T5 construct: purchased Solvo Biotechnology (Budapest, Hungary); host or cells: HEK-293 cells
T5 sequence (O95342 whole entry): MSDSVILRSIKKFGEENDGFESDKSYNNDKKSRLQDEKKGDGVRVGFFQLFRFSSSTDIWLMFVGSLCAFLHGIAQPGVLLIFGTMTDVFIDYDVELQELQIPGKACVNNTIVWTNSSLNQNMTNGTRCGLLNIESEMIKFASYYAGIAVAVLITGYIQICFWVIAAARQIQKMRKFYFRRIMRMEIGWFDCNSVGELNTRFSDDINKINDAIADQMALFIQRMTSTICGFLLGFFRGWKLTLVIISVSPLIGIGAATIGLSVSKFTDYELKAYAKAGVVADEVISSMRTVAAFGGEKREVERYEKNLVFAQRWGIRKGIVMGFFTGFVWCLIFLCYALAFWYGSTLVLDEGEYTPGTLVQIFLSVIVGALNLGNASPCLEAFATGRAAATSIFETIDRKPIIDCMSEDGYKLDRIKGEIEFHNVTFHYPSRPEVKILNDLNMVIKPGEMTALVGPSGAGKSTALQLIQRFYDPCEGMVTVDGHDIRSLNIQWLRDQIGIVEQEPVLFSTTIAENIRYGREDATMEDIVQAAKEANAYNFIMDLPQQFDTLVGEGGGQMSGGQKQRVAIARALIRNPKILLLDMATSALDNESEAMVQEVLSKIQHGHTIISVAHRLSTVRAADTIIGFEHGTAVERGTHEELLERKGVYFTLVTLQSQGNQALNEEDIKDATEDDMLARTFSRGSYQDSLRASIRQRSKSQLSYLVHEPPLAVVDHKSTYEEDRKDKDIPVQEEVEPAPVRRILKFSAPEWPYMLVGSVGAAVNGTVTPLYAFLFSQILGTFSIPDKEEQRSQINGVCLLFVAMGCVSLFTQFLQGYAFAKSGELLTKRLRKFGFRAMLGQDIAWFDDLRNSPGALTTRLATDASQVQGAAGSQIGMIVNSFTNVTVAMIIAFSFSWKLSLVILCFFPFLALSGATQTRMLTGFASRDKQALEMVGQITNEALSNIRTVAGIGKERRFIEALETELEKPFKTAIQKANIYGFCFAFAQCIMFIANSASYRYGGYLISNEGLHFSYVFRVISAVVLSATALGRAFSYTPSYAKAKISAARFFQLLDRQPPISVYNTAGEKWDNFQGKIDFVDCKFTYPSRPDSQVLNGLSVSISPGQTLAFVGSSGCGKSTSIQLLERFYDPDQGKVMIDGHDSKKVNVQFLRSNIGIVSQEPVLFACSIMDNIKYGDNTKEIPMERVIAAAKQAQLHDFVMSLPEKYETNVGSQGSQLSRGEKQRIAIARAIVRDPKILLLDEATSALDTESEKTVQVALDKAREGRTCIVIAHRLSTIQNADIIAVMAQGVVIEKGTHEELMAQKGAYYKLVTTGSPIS

[1] = cited from earlier work
[2] = human, probe DHEAS (0.5 µM unlabeled plus 0.2 µCi radiolabeled)
[3] = taurocholate 2 µM, 37 °C, 10 min

SMILES | OATP1B3 Type of effect (OATP1B3; pyranine 20 µM, 30 min, 37 °C) | NTCP/SLC10A1 Type of effect (NTCP/SLC10A1) | inhibition at […] (ABCC4/MRP4; [2]) | ABCC2/MRP2 Type of effect (ABCC2/MRP2) | ABCB11/BSEP Type of effect (ABCB11/BSEP; [3]) | IC50 (OATP1B3) | IC50 (NTCP/SLC10A1) | ABCC4/MRP4 Type of effect (ABCC4/MRP4) | IC50 (ABCB11/BSEP) | concentration at which BSEP inhibition is effective (ABCB11/BSEP) | further results
NC(=O)c1nc(F)c[nH]c1=O [FAV, favipiravir] | did not modify OATP functionality | only minor inhibition | 10 to 30% | no such effect | did not modify BSEP-mediated TC transport | – | – | – | – | – | –
Cc1cccc(C)c1OCC(=O)N[C@@H](Cc1ccccc1)[C@@H](O)C[C@H](Cc1ccccc1)NC(=O)[C@H](C(C)C)N1CCCNC1=O [LOP, lopinavir] | – | inh | 10 to 30% | no such effect | strongly inhibited TC transport at low concentrations and inh | 2.6 µM | ≥ 50 µM | No effect | 7.8 µM | – | peak plasma concentrations in vivo ([1]; Kaletra 400 mg lopinavir and 100 mg ritonavir in combination): 11 to 20 µM
CCC(CC)COC(=O)[C@H](C)N[P@](=O)(OC[C@H]1O[C@@](C#N)(c2ccc3c(N)ncnn23)[C@H](O)[C@@H]1O)Oc1ccccc1 [REM, remdesivir] | inh | inh | – | did not inhibit but rather increased the probe substrate transport at high concentrations; also recorded: Increase | inh | 4.3 µM | ≥ 50 µM | – | ≥ 40 µM | above 20 µM | inhibition at 50 µM (NTCP/SLC10A1; HEK293, read-out: NTCP inhibition): 40 to 50%; IC50 (ABCC4/MRP4): 2.9 µM; IC50 at […] (ABCC4/MRP4; [2]): ~2.3 µM; T1/2 ([1]; clearance from the human body): 1.15 h; Cmax ([1]; intravenous 100 mg, healthy adults, ref FDA label 214787Orig1s000): 3.7 µM; inhibition at 10 min, 50 µM (ABCB11/BSEP; human, at 50 µM): 40 to 50%
CCC(C)C1OC2(CCC1C)CC1CC(CC=C(C)C(OC3CC(OC)C(OC4CC(OC)C(O)C(C)O4)C(C)O3)C(C)C=CC=C3COC4C(O)C(C)=CC(C(=O)O1)C34O)O2 (stereo not drawn) [IVE, ivermectin] | inh | only minor inhibition | – | strongly decreased the accumulation of the probe substrate and inh | inh | – | – | No effect | – | above 20 µM | OATP1B3 R value (OATP1B3; DDI estimate, cut off 1.1, 165 µg/kg IVE dose, peak plasma 46 ng/ml): 1.07; IC50 (OATP1B3; approximate IC50, pyranine 20 µM, 30 min, 37 °C): 1.4 µM; peak plasma concentration ([1]; 165 µg/kg IVE dose, ref FDA guideline for stromectol): 46 ng/mL; IC50 (ABCC2/MRP2; approximate IC50): ≥ 20 µM; IC50 (ABCB11/BSEP; approximate IC50, taurocholate 2 µM, 37 °C, 10 min): ≥ 30 µM
